In patent US4826958A, “Renin inhibiting compounds” (Abbott Laboratories, priority 1988, dated 1989) one finds IC50 data, which are given here for 28 compounds.

This experiment has as its target T1, human renal renin (Homo sapiens, UniProt P00797).
T1 construct: human renal renin, free from acid proteolytic activity; from tissue; host or cells: human kidney (renal)
T1 sequence (P00797 67-406): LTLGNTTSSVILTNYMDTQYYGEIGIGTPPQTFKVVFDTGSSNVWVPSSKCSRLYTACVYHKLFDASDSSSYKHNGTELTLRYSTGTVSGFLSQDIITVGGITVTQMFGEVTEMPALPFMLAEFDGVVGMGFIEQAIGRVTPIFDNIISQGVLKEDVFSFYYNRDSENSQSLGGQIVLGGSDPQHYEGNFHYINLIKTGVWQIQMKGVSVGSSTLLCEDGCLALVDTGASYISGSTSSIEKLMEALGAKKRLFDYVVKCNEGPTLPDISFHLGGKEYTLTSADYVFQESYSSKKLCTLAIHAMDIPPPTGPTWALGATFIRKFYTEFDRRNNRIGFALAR
Briefly: inhibition of human renal renin in vitro, angiotensin I formed measured by radioimmunoassay. Format: biochemical. Particulars: human renal renin with human renin substrate (angiotensinogen), 37° C., pH 6.0.

“Boc-(α-Naphthyl)-Ala-Ala-Sta amide of benzylamine [Example 11]” registered a half-maximal inhibitory concentration (IC50) of 400 nM.

Consider `CCC(C)CNC(=O)C(OC)C(O)C(CC1CCCCC1)NC(=O)C(CCSC)NC(=O)C(Cc1ccccc1)NC(=O)OC(C)(C)C` (stereo not drawn) [Example 47, Boc-Phe-Methioninyl-4-amino-2-methoxy-3-hydroxy-5-cyclohexylpentanoic acid amide of 2-methylbutylamine], for which the IC50 was 1 nM.

The compound `CC(C)CC(NC(=O)C(Cc1cnc[nH]1)NC(=O)C(Cc1ccccc1)NC(=O)OC(C)(C)C)C(O)CC(=O)NCc1ccccc1` (stereo not drawn) [Example 10, Boc-Phe-His-Sta amide of benzylamine] displayed an IC50 of 700 nM.

As for “(3,4-cis-dihydroxypyrrolidinylcarbonyl)-O-methyl-Tyr-O-methyl-Ser-ACHPA Amide of 2-Methylbutylamine [Example 97]”, the IC50 came to 16 nM.

The compound `CCOC(=O)N[C@@H](Cc1ccccc1)C(=O)N[C@@H](CC(C)C)C(=O)NC(CC1OCCCO1)C(O)CC(=O)NCC(C)CC` (stereo partly drawn) [Example 82, Ethoxycarbonyl-Phe-Leu-[3-hydroxy-4-amino-5-(1',3'-dioxan-2'-yl)]-pentanoicacid amide of 2-methylbutylamine] came in with an IC50 of 7500 nM.

In turn, `C=CCC(C(=O)NCC(C)CC)C(O)C(CC1CCCCC1)NC(=O)C(C)NC(=O)C(Cc1ccccc1)NC(=O)OC(C)(C)C` (stereo not drawn) [Example 49, Boc-Phe-Alaninyl-4-amino-2-allyl-3-hydroxy-5-cyclohexylpentanoic acid amide of 2-methylbutylamine] showed an IC50 of 1.5 nM.

Turning to `CCC(C)CNC(=O)CC(O)C(CC1SCCS1)NC(=O)[C@H](CSC)NC(=O)[C@H](Cc1ccccc1)NC(=O)OC(C)(C)C` (stereo partly drawn) [Example 78, Boc-Phe-S-methylcysteinyl-[3-hydroxy-4-amino-5-(1',3'-dithiolan-2'-yl)]-pentanoic acid amide of 2-methylbutylamine], the IC50 was 1 nM.

For the compound `CCCC(C(=O)NCC(C)CC)C(O)C(CC1CCCCC1)NC(=O)C(Cc1cnc[nH]1)NC(=O)C(Cc1ccccc1)NC(=O)OC(C)(C)C` (stereo not drawn) [Example 46, Boc-Phe-Histidinyl-4-amino-2-propyl-3-hydroxy-5-cyclohexylpentanoic acid amide of 2-methylbutylamine], it took 1.5 nM to reach half-maximal inhibition (IC50).

For `CCC(C)CNC(=O)CC(O)C(CC(C)C)NC(=O)C(Cc1cnc[nH]1)NC(=O)C(Cc1ccccc1)NC(=O)CC(C)(C)C` (stereo not drawn) [Example 16, t-Butylacetyl-Phe-His-Sta amide of 2-methylbutylamine], 100 nM corresponded to half-maximal inhibition (IC50).

As to `CCC(C)CNC(=O)C(OCc1ccccc1)C(O)C(CC1CCCCC1)NC(=O)C(Cc1cnc[nH]1)NC(=O)C(Cc1ccccc1)NC(=O)OC(C)(C)C` (stereo not drawn) [Example 33, Boc-Phe-Histidinyl-4-amino-2-benzyloxy-3-hydroxy-5-cyclohexylpentanoic acid amide of 2-methylbutylamine], the IC50 was 35 nM.

Take `CCC(C)CNC(=O)C[C@H](O)[C@H](CC(C)C)NC(=O)[C@H](Cc1c[nH]cn1)NC(=O)[C@H](Cc1ccc(I)cc1)NC(=O)OC(C)(C)C` (stereo partly drawn) [Example 17, Boc-p-iodo-Phe-His-Sta amide of 2-methylbutylamine]: the IC50 is 1000 nM.

The compound `C=CCC(C(=O)NCC(C)CC)C(O)C(CC1CCCCC1)NC(=O)C(CSC)NC(=O)C(Cc1ccccc1)NC(=O)OC(C)(C)C` (stereo not drawn) [Example 50, Boc-Phe-S-methylcysteinyl-4-amino-2-allyl-3-hydroxy-5-cyclohexylpentanoic acid amide of 2-methylbutylamine] showed an IC50 of 1 nM.

On to `CCC(C)CNC(=O)C(O)C(O)C(CC1CCCCC1)NC(=O)C(Cc1cnc[nH]1)NC(=O)C(Cc1ccccc1)NC(=O)OC(C)(C)C` (stereo not drawn) [Example 35, Boc-Phe-Histidinyl-4-amino-2,3-dihydroxy-5-cyclohexylpentanoic acid amide of 2-methylbutylamine], for which the IC50 is 7 nM.

Compound `CCC(C)CNC(=O)CC(O)C(CC1SCCS1)NC(=O)C(Cc1cnc[nH]1)NC(=O)C(Cc1ccccc1)NC(=O)OC(C)(C)C` (stereo not drawn) [Example 83, Boc-Phe-His-[3-hydroxy-4-amino-5-(1',3'-dithiolan-2'-yl)]-pentanoic acid amide of 2-methylbutylamine] had an IC50 of 1.5 nM.

`CCC(C)CNC(=O)C(O)C(O)C(CC1CCCCC1)NC(=O)C(C)NC(=O)C(Cc1ccccc1)NC(=O)OC(C)(C)C` (stereo not drawn) [Example 34, Boc-Phe-Alaninyl-4-amino-2,3-dihydroxy-5-cyclohexylpentanoic acid amide of 2-methylbutylamine]: the IC50 is 20 nM.

Compound `CCC(C)CNC(=O)C(OC)C(O)C(CC1CCCCC1)NC(=O)[C@H](Cc1cnc[nH]1)NC(=O)[C@H](Cc1ccccc1)NC(=O)OC(C)(C)C` (stereo partly drawn) [Example 40, Boc-Phe-Histidinyl-4-amino-2-methoxy-3-hydroxy-5-cyclohexylpentanoic acid amide of 2-methylbutylamine] showed an IC50 of 30 nM.

The compound `CCC(C)CNC(=O)CC(O)C(CC1CCCCC1)NC(=O)C(CSC)NC(=O)C(Cc1ccccc1)NC(=O)N1C[C@@H](O)[C@@H](O)C1` (stereo partly drawn) [Example 95, (3,4-cis-dihydroxypyrrolidinylcarbonyl)-Phe-S-methyl-cys-ACHPA-amide of 2-Methylbutylamine] had an IC50 of 0.56 nM.

For `CCC(C)CNC(=O)CC(O)C(CC1OCCCO1)NC(=O)[C@H](CSC)NC(=O)[C@H](Cc1ccccc1)NC(=O)OC(C)(C)C` (stereo partly drawn) [Example 81, Boc-Phe-S-methylcysteinyl-[3-hydroxy-4-amino-5-(1',3'-dioxan-2'-yl)]-pentanoic acid amide of 2-methylbuylamine], the midpoint of inhibition, the IC50, lay at 700 nM.

In turn, `CC(C)CNC(=O)CC(O)C(CC(C)C)NC(=O)C(Cc1cnc[nH]1)NC(=O)C(Cc1ccccc1)NC(=O)OC(C)(C)C` (stereo not drawn) [Example 12, Boc-Phe-His-Sta amide of isobutylamine] displayed an IC50 of 500 nM.

For “2(R,S)-(4-morpholinylcarbonylmethyl)-3-(1'-naphthyl)-propionyl-His-ACHPA-amide of 2-methylbutylamine [Example 87]”, the IC50 came to 2 nM.

As for `CCC(C)CNC(=O)C(OC)C(O)C(CC1CCCCC1)NC(=O)C(CSC)NC(=O)C(Cc1ccccc1)NC(=O)OC(C)(C)C` (stereo not drawn) [Example 48, Boc-Phe-S-methylcysteinyl-4-amino-2-methoxy-3-hydroxy-5-cyclohexlpentanoic acid amide of 2-methylbutylamine], the IC50 came to 0.7 nM.

In the case of `C=CCC(C(=O)NCC(C)CC)C(O)C(CC1CCCCC1)NC(=O)C(Cc1cnc[nH]1)NC(=O)C(Cc1ccccc1)NC(=O)OC(C)(C)C` (stereo not drawn) [Example 45, Boc-Phe-Histidinyl-4-amino-2-allyl-3-hydroxy-5-cyclohexylpentanoic acid amide of 2-methylbutylamine], the midpoint of inhibition, the IC50, lay at 1 nM.

For “2(R,S)-(4-morpholinylcarbonylmethyl)-3-(4'-methoxyphenyl)-propionyl-His-ACHPA-amide of 2-methylbutylamine [Example 89]”, the IC50 is 61 nM.

Regarding `CCC(C)CNC(=O)C(OCc1ccccc1)C(O)C(CC1CCCCC1)NC(=O)[C@H](C)NC(=O)[C@H](Cc1ccccc1)NC(=O)OC(C)(C)C` (stereo partly drawn) [Example 32, Boc-Phe-Alaninyl-4-amino-2-benzyloxy-3-hydroxy-5-cyclohexylpentanoic acid amide of 2-methylbutylamine], inhibition was half-maximal at 6 nM (IC50).

In the case of `CCC(C)C(CO)NC(=O)CC(O)C(CC(C)C)NC(=O)C(C)NC(=O)C(Cc1cccc2ccccc12)NC(=O)OC(C)(C)C` (stereo not drawn) [Example 13, Boc-(α-Naphthyl)Ala-Ala-Sta-amide of isoleucinol], it took 50 nM to reach half-maximal inhibition (IC50).

In turn, `CC(C)CCNC(=O)CC(O)C(CC1CCCCC1)NC(=O)C(Cc1cnc[nH]1)NC(=O)C(Cc1ccccc1)NC(=O)OC(C)(C)C` (stereo not drawn) [Example 25, Boc-Phe-His-ACHPA amide of isopentylamine] yielded an IC50 of 5 nM.

`CCC(C)CNC(=O)CC(O)C(CC1SCCCS1)NC(=O)C(CSC)NC(=O)C(Cc1ccccc1)NC(=O)OC(C)(C)C` (stereo not drawn) [Example 79, Boc-Phe-S-methylcysteinyl-[3-hydroxy-4-amino-5-(1',3'-dithian-2'-yl)]-pentanoic acid amide of 2-methylbutylamine]: the IC50 was 6 nM.

As for `CCC(C)CNC(=O)CC(O)C(CC1OCCO1)NC(=O)C(CSC)NC(=O)C(Cc1ccccc1)NC(=O)OC(C)(C)C` (stereo not drawn) [Example 80, Boc-Phe-S-methylcysteinyl-[3-hydroxy-4-amino-5-(1',3'-dioxolan-2'-yl)]-pentanoic acid amide of 2-methylbutylamine], the IC50 was 600 nM.

The term IC50 denotes the concentration that gives 50% inhibition. Lower therefore signals higher potency.
